Test results reported in PMC7801115, “Preclinical in vitro screening of newly synthesised amidino substituted benzimidazoles and benzothiazoles” (Journal of Enzyme Inhibition and Medicinal Chemistry, 2021).
Structures can show the parent of a compound that is named as a salt.

How the values were obtained:
A549 [1] = experiment: MTS cell viability (cytotoxicity) assay, 2D cell culture; assay type: cell-based; settings: Homo sapiens, A549, 2D cell culture, 72 h, ±SD, N = 2, read-out: IC50 antitumor activity A549 2D
Protocol: (§1) Compounds are diluted 1:3. 500 nL (for 2 D cell culture) or 400 nL (for 3 D cell culture) of compound were transferred from mother plate to test plate by using Mosquito (TTP labtech). DMSO percentage in test concentrations was 0.5 − 1.0%. Starting concentration of the test compounds and standard compound doxorubicin was 50 µM (2 D cell culture) or 100 µM (3 D cell culture).
(§2) Cells were grown in 96 well cell star polystyrene plates. 10,000 cells/well were seeded in wells 4 h prior the treatment with different compounds concentrations and incubated for 72 h. A cell viability assay was performed according to the manufacturer’s instruction, using CellTiter 96 aqueous solution, MTS kit (Promega, Madison, WI, USA). After 0.5–2 h of cell incubation with MTS in 2 D cell culture, the plates were read using PE EnVision absorbance at 490 nm. […] Since we prefer homogeneous assays (mix and read procedures) and therefore MTS is more practical (one step less than MTT). MTS is more sensitive and accurate in comparison with MTT assay.
(§3) Calculation of IC50 data, curves and QC analysis is made by using Excel tools and GraphPadPrism software (La Jolla, CA), v. […] QC criteria parameters (Z', S:B, R2, HillSlope) were checked for every IC50 curve.

HCC827 [2] = experiment: as above; assay type: cell-based; settings: Homo sapiens, read-out: IC50 antitumor activity HCC827 2D
Protocol: as §1, §2, §3

NCI-H358 [3] = experiment: as above; assay type: cell-based; settings: Homo sapiens, read-out: IC50 antitumor activity NCI-H358 2D
Protocol: as §1, §2, §3

A549 [4] = experiment: Cell viability assay, 3D hanging drop cell culture (CellTiter GLO 3D); assay type: cell-based; settings: Homo sapiens; A549, 3D hanging drop cell culture, 72 h; ±SD, N = 2; read-out: IC50 antitumor activity A549 3D
Protocol: as §1
(§4) Cells were grown in 96 well Perfecta 3 D hanging drop plates 5000 cell/well for 4 days until spheres were formed (and checked under the microscope). After sphere formation cells were treated with compounds followed by 72 h incubation. Cell viability assay was performed according to the manufacturer’s instruction, using CellTiter GLO 3 D for 3 D cell culture (Promega); cell incubation was 5 min on the shaker followed by 25 min incubation in the dark. Plates were read using PE EnVision luminescence.
as §3

HCC827 [5] = experiment: as above; assay type: cell-based; settings: Homo sapiens, read-out: IC50 antitumor activity HCC827 3D
Protocol: as §1, §4, §3

NCI-H358 [6] = experiment: as above; assay type: cell-based; settings: Homo sapiens, read-out: IC50 antitumor activity NCI-H358 3D
Protocol: as §1, §4, §3

A549 [7] = experiment: BrdU proliferation assay, 2D cell culture; assay type: cell-based; settings: Homo sapiens, A549, 2D cell culture, ±SD, N = 2
Protocol: Cells were grown in 96 well cell star polystyrene plates. 10,000 cells/well were seeded in wells 4 h prior the treatment with different compounds concentrations and incubated for 72 h. A cell viability assay was performed according to the manufacturer’s instruction, using CellTiter 96 aqueous solution, MTS kit (Promega, Madison, WI, USA). After 0.5–2 h of cell incubation with MTS in 2 D cell culture, the plates were read using PE EnVision absorbance at 490 nm. The results for each of tested compounds are reported as growth percentages from two independent concentrations curves compared with the untreated control cells after drug exposure. Since we prefer homogeneous assays (mix and read procedures) and therefore MTS is more practical (one step less than MTT). MTS is more sensitive and accurate in comparison with MTT assay.
(§5) Proliferation assay was performed using Cell Proliferation ELISA, BrdU (Sigma, St. Louis, MO, USA). Briefly, 48 h hours after compound addition, 10 µM of BrdU was added to each well and incubated for following 24 h. After incubation, single cell suspension was made for 3 D cell culture in the new 96 well plate. Plates were centrifuged and supernatants were removed from each plate (for 2 D and 3 D cell culture) followed by 60 min incubation at 60° C. The rest of the proliferation assay was performed according to the manufacturer instructions.
(§6) Calculation of IC50 data, curves and QC analysis is made by using Excel tools and GraphPadPrism software (La Jolla, CA), v. 5.03. In brief, individual concentration–effect curves are generated by plotting the logarithm of the tested concentration of tested compounds (X) versus corresponding percent inhibition values (Y) using least squares (ordinary) fit. […] QC criteria parameters (Z', S:B, R2, HillSlope) were checked for every IC50 curve.

A549 [8] = experiment: BrdU proliferation assay, 3D cell culture; assay type: cell-based; settings: Homo sapiens, A549, 3D cell culture, ±SD, N = 2
Protocol: as §4, with “luminescence. The results for each of tested compounds are reported as growth percentages from two independent concentrations curves compared with the untreated control cells after drug exposure.” for “luminescence.”
as §5, §6

NCI-H358 [9] = experiment: BrdU proliferation assay, 3D cell culture; assay type: cell-based; settings: Homo sapiens, NCI-H358, 3D cell culture, ±SD, N = 2
Protocol: as §4, with “luminescence. The results for each of tested compounds are reported as growth percentages from two independent concentrations curves compared with the untreated control cells after drug exposure.” for “luminescence.”
as §5, §6

HCC827 [10] = experiment: BrdU proliferation assay, 2D cell culture; assay type: cell-based; settings: Homo sapiens, HCC827, 2D cell culture, ±SD, N = 2
Protocol: as §2, §5, §3

NCI-H358 [11] = experiment: BrdU proliferation assay, 2D cell culture; assay type: cell-based; settings: Homo sapiens, NCI-H358, 2D cell culture, ±SD, N = 2
Protocol: as §2, §5, §3

HCC827 [12] = experiment: BrdU proliferation assay, 3D cell culture; assay type: cell-based; settings: Homo sapiens, HCC827, 3D cell culture, ±SD, N = 2
Protocol: as §4, §5, §3

[13] = HCC827, 2D cell culture, 72 h, MTS, ±SD, N = 2
[14] = NCI-H358, 2D cell culture, 72 h, MTS, ±SD, N = 2
[15] = HCC827, 3D hanging drop cell culture, 72 h, ±SD, N = 2
[16] = NCI-H358, 3D hanging drop cell culture, 72 h, ±SD, N = 2

Structure (SMILES)	melting point [°C]	IC50 (A549 [4]) [nM]	IC50 (HCC827 [5]; [15]) [nM]	IC50 (NCI-H358 [6]; [16]) [nM]	IC50 (A549 [7]) [nM]	IC50 (A549 [8]) [nM]	IC50 (NCI-H358 [9]) [nM]	IC50 (HCC827 [10]) [nM]	IC50 (NCI-H358 [11]) [nM]	IC50 (HCC827 [12]) [nM]	IC50 (A549 [1]) [nM]	IC50 (HCC827 [2]; [13]) [nM]	IC50 (NCI-H358 [3]; [14]) [nM]	IC50 (HCC827 [2]; HCC827, 72 h) [nM]	IC50 (NCI-H358 [3]; NCI-H358, 72 h) [nM]	IC50 (HCC827 [5]; HCC827, 72 h) [nM]	IC50 (NCI-H358 [6]; NCI-H358, 72 h) [nM]
Cl.c1ccc2c(c1)cc(-c1nc3ccc(C4=NCCCN4)cc3s1)c1ccccc12 [Compound 5i, 2-(Phenanthrene-9-yl)-6–(3,4,5,6-tetrahydropyrimidin-1-ium-2-yl)benzothiazole chloride]	196 to 200	> 100000	–	–	> 50000	> 100000	> 100000	> 50000	> 50000	> 100000	> 50000	–	–	> 50000	> 50000	> 100000	> 100000
COc1cccc2c1C(=O)c1c(O)c3c(c(O)c1C2=O)C[C@@](O)(C(=O)CO)C[C@@H]3O[C@H]1C[C@H](N)[C@H](O)[C@H](C)O1 [Doxorubicin, reference compound]	–	5000 ± 260	780 ± 80	250 ± 30	60 ± 10	390 ± 20	340 ± 360	20	40	1030 ± 710	2000 ± 230	390 ± 50	110 ± 10	–	–	–	–
CN[C@@H]1C[C@H]2O[C@@](C)([C@@H]1OC)n1c3ccccc3c3c4c(c5c6ccccc6n2c5c31)C(=O)NC4 [Staurosporine, reference compound]	–	–	–	–	–	–	–	60 ± 10	–	40 ± 10	–	150 ± 10	–	–	–	–	–

The next lines start with results.

melting point [°C]	IC50 (A549 [4]) [nM]	IC50 (HCC827 [5]; [15]) [nM]	IC50 (NCI-H358 [6]; [16]) [nM]	IC50 (A549 [7]) [nM]	IC50 (A549 [8]) [nM]	IC50 (NCI-H358 [9]) [nM]	IC50 (HCC827 [10]) [nM]	IC50 (NCI-H358 [11]) [nM]	IC50 (HCC827 [12]) [nM]	Structure (SMILES)	IC50 (A549 [1]) [nM]	IC50 (HCC827 [2]; [13]) [nM]	IC50 (NCI-H358 [3]; [14]) [nM]	IC50 (HCC827 [2]; HCC827, 72 h) [nM]	IC50 (NCI-H358 [3]; NCI-H358, 72 h) [nM]	IC50 (HCC827 [5]; HCC827, 72 h) [nM]	IC50 (NCI-H358 [6]; NCI-H358, 72 h) [nM]
> 300	–	–	–	–	–	–	–	–	–	c1ccc2c(-c3nc4ccc(C5=NCCCN5)cc4[nH]3)c[nH]c2c1 (as salt: chloride) [Compound 6e, 2-(1H-Indol-3-yl)-5(6)–(3,4,5,6-tetrahydropyrimidin-1-ium-2-yl)benzimidazole chloride]	–	–	–	–	–	–	–
272 to 275	> 100000	> 100000	> 100000	> 50000	> 100000	> 100000	> 50000	> 50000	> 100000	Cl.c1ccc(-c2nc3ccc(C4=NCCCN4)cc3s2)cc1 [Compound 5a, 2-Phenyl-6–(3,4,5,6-tetrahydropyrimidin-1-ium-2-yl)benzothiazole chloride]	> 50000	> 50000	> 50000	–	–	–	–
> 300	> 100000	> 100000	> 100000	> 50000	> 100000	> 100000	> 50000	> 50000	> 100000	Cl.c1ccc2c(-c3nc4ccc(C5=NCCCN5)cc4s3)c[nH]c2c1 [Compound 5f, 2-(1H-Indol-3-yl)-6–(3,4,5,6-tetrahydropyrimidin-1-ium-2-yl)benzothiazole chloride]	> 50000	> 50000	> 50000	–	–	–	–
–	> 50000	2000 ± 110	300 ± 20	> 25000	1250 ± 2820	1910 ± 90	2820 ± 1980	1000 ± 280	870 ± 1150	COc1cc2c(Nc3ccc(Br)cc3F)ncnc2cc1OCC1CCN(C)CC1 [Vandetanib, reference compound]	> 25000	810 ± 50	3000 ± 850	–	–	–	–
